From US6706509B2, “Oncoprotein protein kinase” (The Regents of the University of California, priority 1993, dated 2004)

System: jun-D
Experiment: Northern blot of jun-D expression in Jurkat cells
Format: cell-based, human
Settings: CsA 100 ng/ml, 40 minutes
Description: Exponentially growing Jurkat cells (10^6/ml) grown in complete RPMI medium was pretreated with CsA for 15 minutes when applicable, then subjected to various treatments for another 40 minutes. Total cytoplasmic RNA was extracted as previously described (Angel, et al., Cell, 49:729-739, 1987). 10 μg RNA was denatured by incubating with glyoxal for 60 minutes at 55° C. and fractionated on a 1% agarose gel in phosphate buffer. The fractionated RNA was blotted to Zetabind Nylon membrane (CUNO Labs) and hybridized to ^32P-labelled cDNA probes specific for c-jun, jun-B, jun-D, c-fos, α-tubulin and IL-2.
During the first stage of T lymphocyte activation, early response genes are rapidly included (Crabtree, Science, 243:355,361, 1989; Zipfel, et al., Mol Cell Bio., 9:1041-1048, 1989). Induction of jun and fos genes during activation of the Jurkat T cell line was investigated. […] After fractionation of 10 μg samples on an agarose gel and transfer to nylon membrane, the level of c-jun, jun-B, jun-D, c-fos and α-tubulin expression was determined by hybridization to random primed cDNA probes.

Substance: cyclosporin A [CsA]
- effect on potentiation of jun-D expression by TPA+A23187: not inhibited
